# Experimental data taken from patent US20260041620A1, “NOVEL AMINO ACID BASED SALTS, COMPOSITIONS AND METHODS FOR TREATING SKIN AND IMPROVING SKIN REJUVENATION AND LONGEVITY” (Sytheon Ltd, priority 2023, published 2026).
# Read-outs that look alike come from different tables or passages of the source.
# Legend:
# HDAC 4 = HDAC 4 (Homo sapiens, UniProt P56524); assay: HDAC 4 fluorogenic assay kit
# Method: (§3) Test materials were stored at room temperature and stock solutions were prepared at 20 mg/ml in DMSO. Further dilutions were made in sterile distilled water immediately before being added to the reaction mixture containing a substrate, and the reaction was triggered by the addition of purified HDAC enzymes, Double distilled water was the negative control and trichostatin (1.5 ug/ml) was used as a positive control for validation of each study. The test procedure was as directed in the assay kits. The products of the reactions were measured by fluorometry at ex/em 350/450 nm using multi-well plate fluorometer Cytofluor 4000 (Applied Biosystem, Foster City, CA) or using SpectraMax i3× Multi-Mode Detection Platform from Molecular Devices (Sunnyvale, CA).
# (§4) Statistical significance was assessed with a two-tail Student test. Deviations of ≤20% as compared to water control with p values below 0.05 were considered statistically significant.
# Telomerase = Telomerase Activity Quantification qPCR Assay in human dermal fibroblasts; format: cell-based; conditions: 300 nM, three days
# Method: Normal neonatal human dermal fibroblasts (HDF cat, #2310; ScienCell, Oceanside, CA) were grown to confluence in the 6 well plate format and incubated with the test substances identified in Table 3 for three days. Following incubation, the cells were lysed and telomerase activity was determined with Telomerase Activity Quantification qPCR Assay Kit from ScienCell (cat. #8928). Forget-Me-Not™ EvaGreen® qPCR Master Mix (Low ROX) (Biotium, Fremont, CA) was used for real-time quantitative PCR on C1000 Touch System with CFX384™ optical module Detection. For quantifying the level of activity, the Comparative Cq method was used, following the equation: […]
# where TPS is telomere primer set, which recognizes and amplifies newly synthesized telomere sequences and Cq(TPS) is the Quantification Cycle Value obtained from the qPCR software. The relative telomerase activity difference between the experimental condition and control is expressed as 2^−ΔCq Telomerase activity was considered different if the level of expression was reasonably high (Cq≤33 cycles to detect), the difference vs. control was >2 fold and the p value, assessed with two-tailed Student test, was <0.05.
# HDAC7 = biological target: T1, HDAC7 (Homo sapiens, UniProt Q8WUI4)
# T1 sequence (Q8WUI4 1-952): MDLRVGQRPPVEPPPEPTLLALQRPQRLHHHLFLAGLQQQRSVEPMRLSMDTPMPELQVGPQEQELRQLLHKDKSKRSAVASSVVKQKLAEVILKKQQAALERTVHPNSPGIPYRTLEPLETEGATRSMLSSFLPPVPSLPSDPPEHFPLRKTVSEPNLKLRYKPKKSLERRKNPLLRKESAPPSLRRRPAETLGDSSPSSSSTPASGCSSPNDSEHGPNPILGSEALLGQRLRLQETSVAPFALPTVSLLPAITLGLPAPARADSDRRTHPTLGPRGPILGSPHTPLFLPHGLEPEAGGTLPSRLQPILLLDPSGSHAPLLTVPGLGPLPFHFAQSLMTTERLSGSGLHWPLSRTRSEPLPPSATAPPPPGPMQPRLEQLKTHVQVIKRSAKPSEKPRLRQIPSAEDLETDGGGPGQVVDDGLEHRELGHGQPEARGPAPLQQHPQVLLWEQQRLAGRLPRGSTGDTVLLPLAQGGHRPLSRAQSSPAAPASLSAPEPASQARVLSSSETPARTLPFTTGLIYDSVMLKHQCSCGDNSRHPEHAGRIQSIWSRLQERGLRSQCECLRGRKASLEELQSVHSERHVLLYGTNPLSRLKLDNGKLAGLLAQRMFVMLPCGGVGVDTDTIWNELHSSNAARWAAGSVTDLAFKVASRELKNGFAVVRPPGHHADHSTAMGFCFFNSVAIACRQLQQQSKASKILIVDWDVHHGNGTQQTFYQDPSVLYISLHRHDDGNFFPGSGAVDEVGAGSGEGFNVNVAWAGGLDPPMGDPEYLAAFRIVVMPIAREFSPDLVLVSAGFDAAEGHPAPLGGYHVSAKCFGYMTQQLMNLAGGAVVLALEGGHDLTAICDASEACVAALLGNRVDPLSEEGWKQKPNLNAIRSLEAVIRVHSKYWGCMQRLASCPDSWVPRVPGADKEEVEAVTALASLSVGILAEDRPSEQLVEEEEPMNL
# Method: as §3, §4
# MAGL = biological target: T2, MAGL (Homo sapiens, UniProt Q99685); assay: MAGL inhibitory assay; format: biochemical
# T2 construct: purchased Cayman 10007812
# T2 sequence (Q99685 1-303): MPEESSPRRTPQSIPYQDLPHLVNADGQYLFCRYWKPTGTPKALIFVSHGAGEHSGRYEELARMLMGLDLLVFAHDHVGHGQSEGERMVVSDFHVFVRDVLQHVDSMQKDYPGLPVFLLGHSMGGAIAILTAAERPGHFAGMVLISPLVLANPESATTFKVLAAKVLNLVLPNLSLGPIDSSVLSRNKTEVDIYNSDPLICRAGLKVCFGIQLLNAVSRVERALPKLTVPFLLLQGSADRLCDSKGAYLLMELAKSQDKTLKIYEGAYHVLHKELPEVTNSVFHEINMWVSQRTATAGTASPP
# Method: Each study was performed in duplicate and the results averaged.
# The final concentration in each well was 10 μl of sample, 5.6 μM MAGL (Cayman Catalog #10007812) and 23.6 μM 2-Arachidonoyl Glycerol (Cayman catalog #62160).
# HDAC10 = biological target: T3, HDAC10 (Homo sapiens, UniProt Q969S8)
# T3 sequence (Q969S8 1-669): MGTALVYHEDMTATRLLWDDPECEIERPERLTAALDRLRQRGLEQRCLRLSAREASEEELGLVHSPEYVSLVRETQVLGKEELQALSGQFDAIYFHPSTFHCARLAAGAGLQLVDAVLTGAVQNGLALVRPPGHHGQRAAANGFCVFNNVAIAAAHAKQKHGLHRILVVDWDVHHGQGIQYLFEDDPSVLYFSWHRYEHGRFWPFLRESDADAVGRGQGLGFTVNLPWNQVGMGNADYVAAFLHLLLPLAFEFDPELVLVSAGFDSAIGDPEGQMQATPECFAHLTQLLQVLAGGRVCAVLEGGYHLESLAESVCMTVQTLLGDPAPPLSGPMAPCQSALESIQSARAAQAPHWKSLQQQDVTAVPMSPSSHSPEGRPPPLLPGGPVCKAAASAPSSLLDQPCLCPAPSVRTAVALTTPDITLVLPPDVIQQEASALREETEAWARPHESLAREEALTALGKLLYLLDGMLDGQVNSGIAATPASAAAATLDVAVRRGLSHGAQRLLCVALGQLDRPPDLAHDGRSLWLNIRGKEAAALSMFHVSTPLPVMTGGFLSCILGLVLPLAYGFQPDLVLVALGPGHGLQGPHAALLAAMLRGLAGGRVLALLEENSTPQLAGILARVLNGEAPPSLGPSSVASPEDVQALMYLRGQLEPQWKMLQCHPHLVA
# Method: as §3, §4
# FAAH = biological target: T4, FAAH (Homo sapiens, UniProt O00519); assay: FAAH fluorescence-based inhibitory assay; format: biochemical
# T4 sequence (O00519 1-579): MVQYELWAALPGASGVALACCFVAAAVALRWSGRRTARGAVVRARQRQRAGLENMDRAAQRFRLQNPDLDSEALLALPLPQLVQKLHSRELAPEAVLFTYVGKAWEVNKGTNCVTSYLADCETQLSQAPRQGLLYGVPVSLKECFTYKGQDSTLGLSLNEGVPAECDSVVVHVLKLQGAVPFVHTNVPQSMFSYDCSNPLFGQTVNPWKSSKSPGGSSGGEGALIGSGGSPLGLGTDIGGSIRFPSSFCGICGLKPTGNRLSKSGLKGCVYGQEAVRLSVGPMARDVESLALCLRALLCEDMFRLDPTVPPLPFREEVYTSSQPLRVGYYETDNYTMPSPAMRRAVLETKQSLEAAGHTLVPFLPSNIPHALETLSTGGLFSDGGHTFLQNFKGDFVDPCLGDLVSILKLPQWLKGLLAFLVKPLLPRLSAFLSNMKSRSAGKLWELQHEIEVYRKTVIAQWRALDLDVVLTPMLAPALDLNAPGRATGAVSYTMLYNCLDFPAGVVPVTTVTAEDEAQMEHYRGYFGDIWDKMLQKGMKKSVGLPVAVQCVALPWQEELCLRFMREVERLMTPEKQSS
# HDAC 3 = HDAC 3 (Homo sapiens, UniProt O15379)
# HDAC 3, sequence (O15379 whole entry): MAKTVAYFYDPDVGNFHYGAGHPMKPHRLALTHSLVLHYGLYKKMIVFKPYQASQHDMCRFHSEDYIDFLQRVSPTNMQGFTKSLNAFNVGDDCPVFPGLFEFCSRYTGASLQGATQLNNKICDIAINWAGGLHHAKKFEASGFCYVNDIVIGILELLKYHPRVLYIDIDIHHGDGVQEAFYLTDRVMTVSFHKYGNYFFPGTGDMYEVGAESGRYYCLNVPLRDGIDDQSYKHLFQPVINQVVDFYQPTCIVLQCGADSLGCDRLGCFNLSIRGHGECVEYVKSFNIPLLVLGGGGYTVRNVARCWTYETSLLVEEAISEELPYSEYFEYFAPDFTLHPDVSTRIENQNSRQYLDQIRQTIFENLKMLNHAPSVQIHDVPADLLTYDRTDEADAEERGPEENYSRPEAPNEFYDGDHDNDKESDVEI
# HDAC 3, sequence (Q9Y618 395-489 partner limits assumed): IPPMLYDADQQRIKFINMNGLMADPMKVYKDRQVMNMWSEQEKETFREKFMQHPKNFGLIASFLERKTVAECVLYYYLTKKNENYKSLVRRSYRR
# Method: as §3, §4
# FABP-3 = biological target: T5, FABP-3 (Homo sapiens, UniProt P05413); assay: FABP-3 ELISA inhibitory assay; format: biochemical
# T5 construct: purchased Neovateinbio PT-452
# T5 sequence (P05413 whole entry): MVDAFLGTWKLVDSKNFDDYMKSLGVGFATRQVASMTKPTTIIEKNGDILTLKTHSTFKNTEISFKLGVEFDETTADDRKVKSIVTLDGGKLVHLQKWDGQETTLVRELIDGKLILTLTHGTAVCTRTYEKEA
# HDAC 11 = biological target: T6, HDAC 11 (Homo sapiens, UniProt Q96DB2); assay: HDAC 11 fluorogenic assay kit; format: biochemical
# T6 construct: purchased BPS Biosciences 50687
# T6 sequence (Q96DB2 1-347): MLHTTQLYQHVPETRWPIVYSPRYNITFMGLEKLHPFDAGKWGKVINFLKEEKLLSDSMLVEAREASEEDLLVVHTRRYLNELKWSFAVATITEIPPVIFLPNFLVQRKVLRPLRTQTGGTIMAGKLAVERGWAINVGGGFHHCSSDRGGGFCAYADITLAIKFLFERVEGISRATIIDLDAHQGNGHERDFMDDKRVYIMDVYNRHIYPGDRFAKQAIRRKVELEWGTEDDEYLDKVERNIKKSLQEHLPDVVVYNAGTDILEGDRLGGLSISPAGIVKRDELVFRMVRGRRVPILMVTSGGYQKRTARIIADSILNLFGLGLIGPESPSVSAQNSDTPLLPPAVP
# Method: as §3, §4
# FABP-5 = biological target: T7, FABP-5 (Homo sapiens, UniProt Q01469); assay: FABP-5 ELISA inhibitory assay; format: biochemical
# T7 construct: purchased Raybiotech 268-10276-1
# T7 sequence (Q01469 whole entry): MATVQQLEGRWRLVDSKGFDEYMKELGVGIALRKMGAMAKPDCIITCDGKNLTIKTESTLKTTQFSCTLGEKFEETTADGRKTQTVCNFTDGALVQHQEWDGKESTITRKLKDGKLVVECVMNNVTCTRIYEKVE
# HDAC1 = HDAC1 (Homo sapiens, UniProt Q13547); assay: HDAC 1 fluorogenic assay kit; conditions: 200 ug/ml
# HDAC1, sequence (Q13547 whole entry): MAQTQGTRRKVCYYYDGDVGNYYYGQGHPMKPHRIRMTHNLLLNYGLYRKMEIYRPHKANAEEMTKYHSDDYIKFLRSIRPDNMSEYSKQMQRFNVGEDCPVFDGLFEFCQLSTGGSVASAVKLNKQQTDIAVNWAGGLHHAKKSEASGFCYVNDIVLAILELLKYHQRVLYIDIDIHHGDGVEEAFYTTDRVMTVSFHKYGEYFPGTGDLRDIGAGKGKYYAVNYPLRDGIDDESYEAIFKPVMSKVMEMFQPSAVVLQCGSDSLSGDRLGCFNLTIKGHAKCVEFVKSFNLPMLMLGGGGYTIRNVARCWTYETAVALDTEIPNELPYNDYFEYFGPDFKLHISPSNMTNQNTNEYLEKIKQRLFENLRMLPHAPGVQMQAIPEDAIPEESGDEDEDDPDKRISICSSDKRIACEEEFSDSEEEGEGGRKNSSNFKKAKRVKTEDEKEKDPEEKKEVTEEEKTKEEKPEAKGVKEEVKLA
# Method: as §3, §4
# Type I Collagen = Type I Collagen Assay (ELISA, fibroblast culture medium); format: cell-based, human; conditions: 10 μg/ml, 48 hours; untreated 1255 ± 83
# Method: (§1) In the study, human neonatal fibroblasts were seeded into the individual wells of a 48-well plate in 0.25 ml of Fibroblasts Growth Media (FGM) and incubated overnight at 37±2° C. and a 5±1% CO2 atmosphere. On the following day the media was removed via aspiration to eliminate non-adherent cells and replaced with 0.5 ml of fresh FGM. The cells were grown until confluent, with a media change every 48 to 72 hours. Upon reaching confluency the cells were treated for 24 hours with Dulbecco's Modified Eagle's medium (DMED) supplemented with 1.5% Fetal Bovine Serum (FBS) to wash out any effects from the growth factors included in the normal culture media. After this 24-hour wash out period the cells were treated with the test materials at the specified concentrations dissolved in FGM with 1.5% FBS. Sodium ascorbate (10 ug/ml) was used as a positive control. Untreated cells (negative controls) only received DMEM with […], The cells were incubated for 48 hours and at the end of the incubation period, cell culture medium was collected and either stored frozen (−75 C) or assayed immediately. Materials were tested in triplicate.
# A series of type I collagen peptide standards was prepared ranging from 0 ng/ml to 640 ng/ml. An ELISA microplate was prepared by removing any unneeded strips from the plate frame followed by the addition of 100 μl of peroxidase labelled anti-procollagen type I-C peptide antibody to each well used in the assay. A 20 μl sample of each of the collected tissue culture media or a standard was then added to appropriate wells and the microplate covered and allowed to incubate for 3±0.25 hours at 37 C. Following incubation, the wells were aspirated and washed three times with 400 μl of wash buffer. After the last wash was remove 100 μl of peroxidase substrate solution (hydrogen peroxide+tetramethylbenzidine as a chromogen) was added to each well and the plate incubated for 15±4 minutes at room temperature. Following this incubation, 100 μl of stop solution (1 N sulfuric acid) was added to each well and the plate read using a microplate reader at 450 nm.
# (§2) To quantify the amount of each substance present, a standard curve was generated using known concentrations of each substance. A regression analysis was performed to establish the line that best fit those data points. Absorbance values for the test materials and untreated samples were used to estimate the amount of each substance present in each sample. Treatment means were compared using ANOVA, with an […] per treatment. Statistical significance was set at p≤0.05.
# Type IV Collagen = Type IV Collagen Assay (ELISA, fibroblast culture medium); format: cell-based, human; conditions: 10 μg/ml, 48 hours; untreated 7.76 ± 0.92
# Method: as §1
# A series of type IV collagen peptide standards was prepared ranging from 0 ng/ml to 640 ng/ml. 100 μl of each standard or of each of the collected tissue culture media were added to the wells of type IV collagen ELISA plates. The plates were then incubated at 37° C. for 1 hour. After incubation, the ELISA plates were then washed twice with wash buffer, followed by the addition of 100 μl of detection antibody solution. The ELISA plates were then incubated for 1 hour at 37° C. Following incubation, the ELISA plates were washed with wash solution followed by the addition of 100 μl HEP conjugate solution and incubated at 37° C. for 30 minutes. Following the latter incubation, the ELISA plates were again washed and 100 μl of the substrate solution was added to each well and the well plates incubated for 10-30 minutes at room temperature to allow the color generation reaction to occur. At the end of the color generation reaction 100 μl of stop solution (1 N sulfuric acid) was added to each well and the plates read at 460 nm using a plate reader.
# as §2
# HDAC 4, sequence (P56524 whole entry): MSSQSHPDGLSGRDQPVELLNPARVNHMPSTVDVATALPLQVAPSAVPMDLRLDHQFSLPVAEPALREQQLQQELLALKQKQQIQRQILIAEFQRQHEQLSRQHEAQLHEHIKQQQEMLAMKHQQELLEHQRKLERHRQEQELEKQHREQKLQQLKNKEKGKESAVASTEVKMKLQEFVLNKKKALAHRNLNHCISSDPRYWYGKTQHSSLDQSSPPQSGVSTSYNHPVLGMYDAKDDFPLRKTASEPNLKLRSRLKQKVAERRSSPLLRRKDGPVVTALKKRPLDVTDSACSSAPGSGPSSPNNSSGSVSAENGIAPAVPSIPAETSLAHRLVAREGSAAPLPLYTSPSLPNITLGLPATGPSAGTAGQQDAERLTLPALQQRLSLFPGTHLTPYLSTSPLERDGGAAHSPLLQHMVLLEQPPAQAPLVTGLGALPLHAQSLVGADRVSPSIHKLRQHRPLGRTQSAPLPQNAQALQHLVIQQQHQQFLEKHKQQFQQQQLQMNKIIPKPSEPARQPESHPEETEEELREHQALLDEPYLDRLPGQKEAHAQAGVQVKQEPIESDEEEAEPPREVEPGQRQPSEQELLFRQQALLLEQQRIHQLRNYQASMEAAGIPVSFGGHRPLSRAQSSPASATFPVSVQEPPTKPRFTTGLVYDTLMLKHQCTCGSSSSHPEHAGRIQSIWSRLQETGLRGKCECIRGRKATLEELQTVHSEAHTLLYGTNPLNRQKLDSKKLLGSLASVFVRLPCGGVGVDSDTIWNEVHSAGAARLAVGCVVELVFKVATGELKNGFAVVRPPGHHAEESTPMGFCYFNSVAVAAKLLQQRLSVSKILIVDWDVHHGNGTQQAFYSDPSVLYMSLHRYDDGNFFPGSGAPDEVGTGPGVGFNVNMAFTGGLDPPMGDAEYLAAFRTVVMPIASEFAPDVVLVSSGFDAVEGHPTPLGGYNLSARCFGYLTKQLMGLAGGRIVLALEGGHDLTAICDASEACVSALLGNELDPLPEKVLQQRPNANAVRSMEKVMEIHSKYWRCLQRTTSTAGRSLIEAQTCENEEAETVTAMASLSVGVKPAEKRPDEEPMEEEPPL
smiles,measurement,setting,value
"CCCC(=O)[O-].CCCC(=O)[O-].[Ca+2] [Ca n-butyrate, reference compound]","HDAC 4 activity, % of water-treated controls",HDAC 4; 25 ug/ml,104%
same,"HDAC 4 activity, % of water-treated controls",HDAC 4; 50 ug/ml,102%
same,"HDAC 4 activity, % of water-treated controls",HDAC 4; 100 ug/ml,109%
CC(/C=C/C(=O)NO)=C\[C@@H](C)C(=O)c1ccc(N(C)C)cc1 [Trichostatin-A],Average Cq(TPS),Telomerase,32.3
same,Telomerase Activity (FC vs. water),Telomerase,2.8 FC
same,ΔCq sample-water,Telomerase,1.5
"CCCC(=O)NCCCC[C@H](NC(=O)CCC)C(=O)[O-].CCCC(=O)NCCCC[C@H](NC(=O)CCC)C(=O)[O-].[Mg+2] [Mg di-(di-n-butyryl lysinate), magnesium di-(di-n-butyryl lysinate)]","HDAC 7 activity, % of water-treated controls",HDAC7; 100 ug/ml,100%
same,"HDAC 7 activity, % of water-treated controls",HDAC7; 200 ug/ml,100%
same,MAGL IC50,MAGL,101 µg/mL
same,"HDAC 10 activity, % of water-treated controls",HDAC10; 100 ug/ml,98%
same,"HDAC 10 activity, % of water-treated controls",HDAC10; 200 ug/ml,102%
same,FAAH IC50,FAAH,368.5 µg/mL
same,"HDAC 3 activity, % of water-treated controls",HDAC 3; 100 ug/ml,114%
same,"HDAC 3 activity, % of water-treated controls",HDAC 3; 200 ug/ml,117%
same,FABP-3 IC50,FABP-3,282.5 µg/mL
same,"HDAC 11 activity, % of water-treated controls",HDAC 11; 100 ug/ml,91%
same,"HDAC 11 activity, % of water-treated controls",HDAC 11; 200 ug/ml,91%
same,FABP-5 IC50,FABP-5,349.1 µg/mL
same,"HDAC 1 activity, % of water-treated controls",HDAC1,74%
"C=C(C)[C@@H]1CCC(C)=C[C@H]1c1c(O)cc(CCCCC)cc1O [CBD, Cannabidiol, reference compound]",MAGL IC50,MAGL,"4,130^2 ^ μg/ml"
"O=C1O[C@H]([C@@H](O)CO)C([O-])=C1O.[Na+] [Na ascorbate, Sodium ascorbate]",Type I Collagen C-Peptide,Type I Collagen,4018 ± 196 ng/mL
same,Type IV Collagen C-Peptide,Type IV Collagen,67.70 ± 5.03 ng/mL
